The first assay addresses T1, HDAC6 enzyme (Homo sapiens, UniProt Q9UBN7).
T1 construct: HDAC6 enzyme prepared by transducing full length HDAC6 gene into Sf-9 insect cells; GST; purchased SignalChem; host or cells: Sf-9 insect cells
T1 sequence (Q9UBN7 1-1215): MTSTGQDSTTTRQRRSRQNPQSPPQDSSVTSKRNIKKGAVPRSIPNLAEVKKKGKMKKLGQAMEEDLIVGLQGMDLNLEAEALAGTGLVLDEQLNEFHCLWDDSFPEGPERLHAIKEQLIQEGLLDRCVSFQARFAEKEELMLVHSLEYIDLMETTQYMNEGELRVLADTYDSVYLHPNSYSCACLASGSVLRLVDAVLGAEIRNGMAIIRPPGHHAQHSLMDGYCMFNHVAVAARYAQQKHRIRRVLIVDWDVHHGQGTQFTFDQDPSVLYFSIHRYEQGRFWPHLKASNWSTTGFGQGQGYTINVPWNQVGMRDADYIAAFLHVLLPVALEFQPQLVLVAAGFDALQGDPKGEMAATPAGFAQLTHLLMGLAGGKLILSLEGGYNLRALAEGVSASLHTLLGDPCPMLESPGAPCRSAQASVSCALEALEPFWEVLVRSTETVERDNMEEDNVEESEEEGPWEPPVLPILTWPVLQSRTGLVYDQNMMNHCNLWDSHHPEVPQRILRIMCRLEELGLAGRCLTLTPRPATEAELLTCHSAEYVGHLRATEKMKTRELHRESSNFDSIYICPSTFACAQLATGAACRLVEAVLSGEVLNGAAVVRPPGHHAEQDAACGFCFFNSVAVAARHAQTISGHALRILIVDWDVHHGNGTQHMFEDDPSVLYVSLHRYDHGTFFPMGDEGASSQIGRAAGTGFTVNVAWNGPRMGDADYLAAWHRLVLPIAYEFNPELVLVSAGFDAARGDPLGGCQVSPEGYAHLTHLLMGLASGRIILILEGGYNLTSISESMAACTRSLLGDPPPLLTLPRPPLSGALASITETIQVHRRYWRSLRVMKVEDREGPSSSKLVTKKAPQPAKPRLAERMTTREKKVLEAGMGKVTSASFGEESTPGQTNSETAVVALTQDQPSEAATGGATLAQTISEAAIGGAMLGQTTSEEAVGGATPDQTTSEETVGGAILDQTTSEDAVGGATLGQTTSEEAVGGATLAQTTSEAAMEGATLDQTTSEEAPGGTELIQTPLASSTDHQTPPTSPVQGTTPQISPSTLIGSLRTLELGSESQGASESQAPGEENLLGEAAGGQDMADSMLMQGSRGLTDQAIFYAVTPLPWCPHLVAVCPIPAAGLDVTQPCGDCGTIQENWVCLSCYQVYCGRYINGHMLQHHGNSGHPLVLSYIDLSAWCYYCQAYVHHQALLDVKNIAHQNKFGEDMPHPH
Kind of assay: HDAC6 enzyme inhibitory assay (HDAC-Glo I/II Assay kit). It counts as biochemical. The note with it: wells without enzyme = 100% inhibition. The procedure, abridged:
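Full-length GST-purified HDAC6 from Sf-9 cells preincubated with compound 60 min at room temperature in Tris-HCl pH 7.5 buffer with MgCl2, KCl, NaCl, glutathione, Tween-20. Substrate-developer reaction 20 min, luminescence read; no-enzyme wells set as 100% inhibition.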
Turning to `O=C1c2cc(-c3nnc(C(F)F)o3)ccc2CN1[C@H](c1cnccn1)[C@@H](O)c1cccc(Cl)c1` (single isomer, unassigned) [Example 92, 2-[(1R*,2S*)-2-(3-chlorophenyl)-2-hydroxy-1-(pyrazin-2-yl)ethyl]-6-[5-(difluoromethyl)-1,3,4-oxadiazol-2-yl]-2,3-dihydro-1H-isoindol-1-one], the “HDAC6 inhibitory rate (%) (10 μM)” value came out at 100%.

Turning to `O=C1c2cc(-c3nnc(C(F)F)o3)ccc2CN1[C@H](c1ccc(F)c(F)c1)[C@@H](O)c1ccccn1` (single isomer, unassigned) [Example 51, 6-[5-(difluoromethyl)-1,3,4-oxadiazol-2-yl]-2-[(1R*,2R*)-1-(3,4-difluorophenyl)-2-hydroxy-2-(pyridin-2-yl)ethyl]-2,3-dihydro-1H-isoindol-1-one], the “HDAC6 inhibitory rate (%) (10 μM)” value was 99%.

`O=C1c2cc(-c3nnc(C(F)F)o3)ccc2CN1[C@H](c1ccc(F)cc1)[C@@H](O)c1ccc(F)nc1` (single isomer, unassigned) [Example 132, 6-[5-(difluoromethyl)-1,3,4-oxadiazol-2-yl]-2-[(1R*,2S*)-1-(4-fluorophenyl)-2-(6-fluoropyridin-3-yl)-2-hydroxyethyl]-2,3-dihydro-1H-isoindol-1-one]: the “HDAC6 inhibitory rate (%) (10 μM)” value came to 99%.

The same assay, now with this note: wells without enzyme = 100% inhibition, 10 µM.
In the case of `O=C1c2cc(-c3nnc(C(F)F)o3)ccc2CN1[C@H](c1cccc(F)n1)[C@@H](O)c1ccccn1` (single isomer, unassigned) [Example 76, 6-[5-(difluoromethyl)-1,3,4-oxadiazol-2-yl]-2-[(1R*,2R*)-1-(6-fluoropyridin-2-yl)-2-hydroxy-2-(pyridin-2-yl)ethyl]-2,3-dihydro-1H-isoindol-1-one], the “HDAC6 inhibitory rate (%) (10 μM)” value is 100%.

Take `O=C1c2cc(-c3nnc(C(F)F)o3)ccc2CN1[C@H](c1ccccn1)[C@@H](O)c1ccc(Cl)cn1` (single isomer, unassigned) [Example 113, 2-[(1R*,2R)-2-(5-chloropyridin-2-yl)-2-hydroxy-1-(pyridin-2-yl)ethyl]-6-[5-(difluoromethyl)-1,3,4-oxadiazol-2-yl]-2,3-dihydro-1H-isoindol-1-one]: the “HDAC6 inhibitory rate (%) (10 μM)” value was found to be 100%.

Regarding `O=C1c2cc(-c3nnc(C(F)F)o3)ccc2CN1[C@H](C1CC1)[C@@H](O)c1ncccn1` (single isomer, unassigned) [Example 74, 2-[(1R*,2R*)-1-cyclopropyl-2-hydroxy-2-(pyrimidin-2-yl)ethyl]-6-[5-(difluoromethyl)-1,3,4-oxadiazol-2-yl]-2,3-dihydro-1H-isoindol-1-one], the “HDAC6 inhibitory rate (%) (10 μM)” value is given as 96%.

Consider `O=C1c2cc(-c3nnc(C(F)F)o3)ccc2CN1[C@H](c1cccc(F)n1)[C@@H](O)c1cccc(F)n1` (single isomer, unassigned) [Example 118, 2-[(1R*,2R*)-1,2-bis(6-fluoropyridin-2-yl)-2-hydroxyethyl]-6-[5-(difluoromethyl)-1,3,4-oxadiazol-2-yl]-2,3-dihydro-1H-isoindol-1-one], for which the “HDAC6 inhibitory rate (%) (10 μM)” value was 102%.

The assay is the same for the next values; noted with them: wells without enzyme = 100% inhibition, read-out: HDAC6 inhibitory rate (%) (10 μM).
Consider `O=C1c2cc(-c3nnc(C(F)F)o3)ccc2CN1[C@H](c1cccc(F)n1)[C@@H](O)c1ccc(F)cn1` (relative stereo) [Example 125, 6-[5-(difluoromethyl)-1,3,4-oxadiazol-2-yl]-2-[(1R*,2R)-2-(5-fluoropyridin-2-yl)-1-(6-fluoropyridin-2-yl)-2-hydroxyethyl]-2,3-dihydro-1H-isoindol-1-one], for which the inhibition at 10 µM is 101%.

For `O=C1c2cc(-c3nnc(C(F)F)o3)ccc2CN1[C@H](C1CC1)[C@@H](O)c1ccc(F)cn1` [Example 57, 2-[(1R,2R)-1-cyclopropyl-2-(5-fluoropyridin-2-yl)-2-hydroxyethyl]-6-[5-(difluoromethyl)-1,3,4-oxadiazol-2-yl]-2,3-dihydro-1H-isoindol-1-one], the inhibition at 10 µM is 100%.

In the case of `O=C1c2cc(-c3nnc(C(F)F)o3)ccc2CN1[C@H](c1ccccn1)[C@@H](O)c1ccccc1` (single isomer, unassigned) [Example 102, 6-[5-(difluoromethyl)-1,3,4-oxadiazol-2-yl]-2-[(1R*,2S*)-2-hydroxy-2-phenyl-1-(pyridin-2-yl)ethyl]-2,3-dihydro-1H-isoindol-1-one], the inhibition at 10 µM came out at 100%.

For the compound `O=C1c2cc(-c3nnc(C(F)F)o3)ccc2CN1[C@H](c1cnccn1)[C@@H](O)c1ccccc1` (single isomer, unassigned) [Example 127, 6-[5-(difluoromethyl)-1,3,4-oxadiazol-2-yl]-2-[(1R*,2S*)-2-hydroxy-2-phenyl-1-(pyrazin-2-yl)ethyl]-2,3-dihydro-1H-isoindol-1-one], the inhibition at 10 µM worked out at 99%.

In the case of `Cn1cc([C@H]([C@@H](O)c2ccccc2)N2Cc3ccc(-c4nnc(C(F)F)o4)cc3C2=O)cn1` (racemic) [Example 42, 6-[5-(difluoromethyl)-1,3,4-oxadiazol-2-yl]-2-[(1RS,2SR)-2-hydroxy-1-(1-methyl-1H-pyrazol-4-yl)-2-phenylethyl]-2,3-dihydro-1H-isoindol-1-one], the inhibition at 10 µM is 100%.

Regarding `O=C1c2cc(-c3nnc(C(F)F)o3)ccc2CN1[C@H](C1CC1)[C@@H](O)c1ncccn1` (single isomer, unassigned) [Example 73, 2-[(1R*,2R*)-1-cyclopropyl-2-hydroxy-2-(pyrimidin-2-yl)ethyl]-6-[5-(difluoromethyl)-1,3,4-oxadiazol-2-yl]-2,3-dihydro-1H-isoindol-1-one], the inhibition at 10 µM is 100%.

On to `O=C1c2cc(-c3nnc(C(F)F)o3)ccc2CN1[C@H](c1ccccn1)[C@@H](O)c1cc(Cl)ccn1` (single isomer, unassigned) [Example 123, 2-[(1R*,2R*)-2-(4-chloropyridin-2-yl)-2-hydroxy-1-(pyridin-2-yl)ethyl]-6-[5-(difluoromethyl)-1,3,4-oxadiazol-2-yl]-2,3-dihydro-1H-isoindol-1-one], for which the inhibition at 10 µM was found to be 101%.

Turning to `O=C1c2cc(-c3nnc(C(F)F)o3)ccc2CN1[C@@H](c1ccccn1)[C@H](O)c1cccc(F)n1` [Example 8, 6-[5-(difluoromethyl)-1,3,4-oxadiazol-2-yl]-2-[(1S,2S)-2-(6-fluoropyridin-2-yl)-2-hydroxy-1-(pyridin-2-yl)ethyl]-2,3-dihydro-1H-isoindol-1-one], the inhibition at 10 µM is 99%.

With `O=C1c2cc(-c3nnc(C(F)F)o3)ccc2CN1[C@H](c1ccccc1)[C@@H](O)c1ccccn1` (single isomer, unassigned) [Example 47, 6-[5-(difluoromethyl)-1,3,4-oxadiazol-2-yl]-2-[(1R*,2R*)-2-hydroxy-1-phenyl-2-(pyridin-2-yl)ethyl]-2,3-dihydro-1H-isoindol-1-one], the inhibition at 10 µM amounted to 99%.

The record behind these values is patent US12384770B2, “Heterocyclic compound” (Takeda Pharmaceutical Company Limited, priority 2019, dated 2025).
